# Laboratory results reported in patent US20240158446A1, “CYCLIC COMPOUND HAVING SELECTIVE INHIBITORY ACTION ON KRAS OVER HRAS AND NRAS” (CHUGAI SEIYAKU KABUSHIKI KAISHA, priority 2021, published 2024).
# Read-outs that look alike come from different tables or passages of the source. Where a SMILES comes first, the peptide text is derived from it. Bridges are numbered along the chain shown (N, C = ends). [ ]: non-standard residue; d: D form. The star is where a group is joined. hPhe(3-Cl-4-CF3) = N[C@@H](CCc1ccc(C(F)(F)F)c(Cl)c1)C(=O)O; NPrPhe(4-CF3) = CCCN[C@@H](Cc1ccc(C(F)(F)F)cc1)C(=O)O; NMeGly(cPent) = CN[C@H](C(=O)O)C1CCCC1; Pro(4,4-F2) = O=C(O)[C@@H]1CC(F)(F)CN1; Pro(4S-Me) = C[C@@H]1CN[C@H](C(=O)O)C1; NMeD = CN[C@@H](CC(=O)O)C(=O)O; NMeL = CN[C@@H](CC(C)C)C(=O)O; Morpholide = C1CN(*)CCO1; NMeA = CN[C@@H](C)C(=O)O; Ac5c = NC1(C(=O)O)CCCC1; Aze = O=C(O)[C@@H]1CCN1; Ac4c = NC1(C(=O)O)CCC1; NEtG = CCNCC(=O)O; Sar = CNCC(=O)O
# Assays:
# [1] = biological target: GDP-bound KRAS wild-type protein (Homo sapiens, UniProt P01116); experiment: Binding to KRAS by surface plasmon resonance (SPR), Single Cycle Kinetics; settings: GDP-bound KRAS wild-type protein, read-out: KRAS KD
# [2] = biological target: GDP-bound NRAS wild-type protein (Homo sapiens, UniProt P01111); experiment: Binding to NRAS by surface plasmon resonance (SPR), Single Cycle Kinetics; settings: SPR, GDP-bound NRAS wild-type protein vs GDP-bound KRAS wild-type protein
# [3] = biological target: GDP-bound HRAS wild-type protein (Homo sapiens, UniProt P01112); experiment: Binding to HRAS by surface plasmon resonance (SPR), Single Cycle Kinetics; settings: SPR, GDP-bound HRAS wild-type protein vs GDP-bound KRAS wild-type protein
# [4] = SPR Single Cycle Kinetics, 1:1 binding model
# GDP-bound KRAS wild-type protein, sequence (P01116 whole entry): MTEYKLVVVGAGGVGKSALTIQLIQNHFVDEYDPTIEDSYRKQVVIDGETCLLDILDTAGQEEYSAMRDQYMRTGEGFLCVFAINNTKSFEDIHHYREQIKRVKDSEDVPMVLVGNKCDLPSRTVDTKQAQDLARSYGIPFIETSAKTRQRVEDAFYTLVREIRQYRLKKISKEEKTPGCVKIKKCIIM
# GDP-bound NRAS wild-type protein, sequence (P01111 whole entry): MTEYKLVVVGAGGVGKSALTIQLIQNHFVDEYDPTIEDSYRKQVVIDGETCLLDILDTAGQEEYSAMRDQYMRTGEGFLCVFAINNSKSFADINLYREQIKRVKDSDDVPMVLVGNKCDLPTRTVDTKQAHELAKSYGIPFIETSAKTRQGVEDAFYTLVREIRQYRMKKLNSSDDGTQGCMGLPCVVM
# GDP-bound HRAS wild-type protein, sequence (P01112 whole entry): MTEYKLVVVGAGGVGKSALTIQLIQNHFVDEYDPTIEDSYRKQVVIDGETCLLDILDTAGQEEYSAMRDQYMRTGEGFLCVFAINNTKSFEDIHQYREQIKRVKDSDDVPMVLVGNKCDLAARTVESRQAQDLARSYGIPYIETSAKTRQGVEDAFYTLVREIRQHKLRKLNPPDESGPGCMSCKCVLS
Compound,"Kd ([1]; SPR, Single Cycle Kinetics)",NRAS/KRAS (ratio of KD value for NRAS to KD value for KRAS) [2],HRAS/KRAS (ratio of KD value for HRAS to KD value for KRAS) [3],"Kd [1, 4]",further results
CCCCO[C@@H]1C[C@H]2C(=O)NC3(CCC3)C(=O)N(C)[C@@H](C3CCCC3)C(=O)N(C)[C@H](C(=O)N3CCOCC3)CC(=O)N(C)[C@@H](CC(C)C)C(=O)N[C@@H]([C@@H](C)CC)C(=O)N(C)CC(=O)N(C)[C@H]3CCCCN(C3=O)[C@@H](Cc3ccc(C(F)(F)F)cc3)C(=O)N(C)CC(=O)N[C@@H](CCc3cc(F)c(C(F)(F)F)c(F)c3)C(=O)N2C1 [PP0999],0.11 nM,C (A compound having a KD ratio of 0.1 or more and less than 3 is denoted as C),B (a compound having 3 or more and less than 10 is denoted as B),–,–
CCCN1C(=O)[C@@H]2CCN2C(=O)CN(C)C(=O)[C@H]([C@@H](C)CC)NC(=O)[C@H](CC(C)C)N(C)C(=O)C[C@@H](C(=O)N2CCOCC2)N(C)C(=O)[C@H](C2CCCC2)N(C)C(=O)C2(CCCC2)NC(=O)[C@@H]2C[C@H](C)CN2C(=O)[C@H](CCc2ccc(C(F)(F)F)c(Cl)c2)NC(=O)CN(C)C(=O)[C@@H]1Cc1ccc(C(F)(F)F)cc1 [PP0457] ([NMeL]I[Sar][Aze][NPrPhe(4-CF3)][Sar][hPhe(3-Cl-4-CF3)][Pro(4S-Me)][Ac5c][NMeGly(cPent)][NMeD]-Morpholide; lactam N-11),–,–,–,0.083 nM,NRAS/KRAS (ratio of KD value with respect to NRAS to KD value with respect to KRAS) [2]: C (A compound having a KD ratio of 0.1 or more and less than 3 is denoted as C); HRAS/KRAS (ratio of KD value with respect to HRAS to KD value with respect to KRAS) [3]: B (a compound having 3 or more and less than 10 is denoted as B)
CCO[C@@H]1C[C@H]2C(=O)NC3(CCC3)C(=O)N(C)[C@@H](C3CCCC3)C(=O)N(C)[C@H](C(=O)N(C)CCOC)CC(=O)N(C)[C@@H](CC(C)C)C(=O)N[C@@H]([C@@H](C)CC)C(=O)N(C)CC(=O)N(C)[C@H]3C/C=C\CCN(C3=O)[C@@H](Cc3ccc(C(F)(F)F)cc3)C(=O)N(C)CC(=O)N[C@@H](CCc3cc(F)c(C(F)(F)F)c(F)c3)C(=O)N2C1 [PP1317],–,–,–,–,"Kd ([1]; SPR, Single Cycle Kinetics, 1:1 binding model): 0.094 nM; NRAS/KRAS (ratio of KD value for NRAS to KD value for KRAS) ([2]; KD ratio class): A (a compound having 10 or more and less than 20 is denoted as A); HRAS/KRAS (ratio of KD value for HRAS to KD value for KRAS) ([3]; KD ratio class): B (a compound having 3 or more and less than 10 is denoted as B)"
"CCCN1C(=O)[C@@H]2CCN2C(=O)[C@H](C)N(C)C(=O)[C@H]([C@@H](C)CC)NC(=O)[C@H](CC(C)C)N(C)C(=O)C[C@@H](C(=O)N2CCOCC2)NC(=O)[C@H](C2CCCC2)N(C)C(=O)C2(CCC2)NC(=O)[C@@H]2CC(F)(F)CN2C(=O)[C@H](CCc2ccc(C(F)(F)F)c(Cl)c2)NC(=O)CN(C)C(=O)[C@@H]1Cc1ccc(C(F)(F)F)cc1 [PP0346] ([NMeL]I[NMeA][Aze][NPrPhe(4-CF3)][Sar][hPhe(3-Cl-4-CF3)][Pro(4,4-F2)][Ac4c][NMeGly(cPent)]D-Morpholide; lactam N-11)",–,C (A compound having a KD ratio of 0.1 or more and less than 3 is denoted as C),B (a compound having 3 or more and less than 10 is denoted as B),1.2 nM,–
CCO[C@@H]1C[C@H]2C(=O)NC3(CCC3)C(=O)N(C)[C@@H](CC(F)F)C(=O)N(C)[C@H](C(=O)N3CCOCC3)CC(=O)N(C)[C@@H](CC(C)C)C(=O)N[C@@H]([C@@H](C)CC)C(=O)N(C)CC(=O)N(C)[C@H]3CCCCN(C3=O)[C@@H](Cc3ccc(C(F)(F)F)cc3)C(=O)N(C)CC(=O)N[C@@H](CCc3cc(F)c(C(F)(F)F)c(F)c3)C(=O)N2C1 [PP0813],0.4 nM,C (A compound having a KD ratio of 0.1 or more and less than 3 is denoted as C),B (a compound having 3 or more and less than 10 is denoted as B),–,–
CCCN1C(=O)CN(C)C(=O)CN(CC)C(=O)[C@H]([C@@H](C)CC)NC(=O)[C@H](CC(C)C)N(C)C(=O)C[C@@H](C(=O)N2CCOCC2)N(C)C(=O)[C@H](C2CCCC2)N(C)C(=O)C2(CCCC2)NC(=O)[C@@H]2CCN2C(=O)[C@H](CCc2ccc(C(F)(F)F)c(Cl)c2)NC(=O)CN(C)C(=O)[C@@H]1Cc1ccc(C(F)(F)F)cc1 [PP0294] ([NMeL]I[NEtG][Sar][NPrPhe(4-CF3)][Sar][hPhe(3-Cl-4-CF3)][Aze][Ac5c][NMeGly(cPent)][NMeD]-Morpholide; lactam N-11),–,B (a compound having 3 or more and less than 10 is denoted as B),C (A compound having a KD ratio of 0.1 or more and less than 3 is denoted as C),1.7 nM,–
